According to patent publication US9708314B2, “Heterocyclic amide compound” (NISSAN CHEMICAL INDUSTRIES, LTD., priority 2013, dated 2017):

Assays:
Type in all cases: in vivo
[1] = test system: Avena fatua; assay: Test Example 4: herbicidal effect by application to foliage (diluvial soil, plastic box); details: application to foliage, application herbicide amount 320 g/ha
Method in brief: (§1)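 Read-out is a 0–5 visual grade of herbicidal ratio (5: ≥90%, almost withered; 0: ≤5%) taken three weeks after treatment. Compound was applied as a diluted emulsion to stem and leaf parts of 14-day greenhouse-grown plants (25° C. to 30° C.) at rates expressed as g/ha.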

[2] = test system: Abutilon theophrasti; assay: as above; details: application to foliage, application herbicide amount 320 g/ha
Method in brief: as §1

[3] = test system: Amaranthus retroflexus; assay: as above; details: application to foliage, application herbicide amount 320 g/ha
Method in brief: as §1

[4] = test system: Stellaria media; assay: as above; details: application to foliage, application herbicide amount 320 g/ha
Method in brief: as §1

[5] = test system: Lolium multiflorum Lam.; assay: as above; details: application to foliage, application herbicide amount 320 g/ha
Method in brief: as §1

[6] = test system: Veronica persica; assay: as above; details: application to foliage, application herbicide amount 320 g/ha
Method in brief: as §1

[7] = test system: Chenopodium album; assay: as above; details: application to foliage, application herbicide amount 320 g/ha
Method in brief: as §1

[8] = test system: Echinochloa crus-galli var. crus-galli; assay: as above; details: application to foliage, application herbicide amount 320 g/ha
Method in brief: as §1

[9] = test system: Setaria viridis; assay: as above; details: application to foliage, application herbicide amount 320 g/ha
Method in brief: as §1

[10] = test system: Alopecurus myosuroides; assay: as above; details: application to foliage, application herbicide amount 320 g/ha
Method in brief: as §1

[11] = test system: Galium spurium; assay: as above; details: application to foliage, application herbicide amount 320 g/ha
Method in brief: as §1

[12] = test system: Apera spica-venti.; assay: as above; details: application to foliage, application herbicide amount 320 g/ha
Method in brief: as §1

[13] = test system: Digitaria ciliaris; assay: as above; details: application to foliage, application herbicide amount 320 g/ha
Method in brief: as §1

[14] = test system: Brassica campestris L.; assay: Test Example 4: effect on crop by application to foliage (diluvial soil, plastic box); details: application to foliage, application herbicide amount 320 g/ha
Method in brief: as §1

[15] = test system: Triticum aestivum; assay: as above; details: application to foliage, application herbicide amount 320 g/ha
Method in brief: as §1

[16] = test system: Zea mays; assay: as above; details: application to foliage, application herbicide amount 320 g/ha
Method in brief: as §1

[17] = test system: Glycine max; assay: as above; details: application to foliage, application herbicide amount 320 g/ha
Method in brief: as §1

[18] = test system: directly sowed Oryza sativa; assay: as above; details: application to foliage, application herbicide amount 320 g/ha
Method in brief: as §1

[19] = test system: Beta vulgaris ssp. vulgaris; assay: as above; details: application to foliage, application herbicide amount 320 g/ha
Method in brief: as §1

[20] = test system: transplanted Oryza sativa; assay: Test Example 1: effect on crop, application before weed generation in submerged conditions; details: Application herbicide amount 320 g/ha; Seventeenth Table
Method in brief: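 Submerged pot test: alluvial soil, 4 cm water, seeds sown mixed, 2.5-leaf rice transplanted; emulsion in water applied to surface day of sowing, dose g/ha; greenhouse 25–30° C.; 3 wk; 0–5 rating.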

COc1ccc(CN(C)c2nnc3c(C(=O)Nc4nnc(C)o4)ccc(C(F)(F)F)n23)cc1 [1-167]
I: herbicidal effect on Avena fatua [1]: 1 (Herbicidal ratio of 5% or more and less than 20%) | M: herbicidal effect on Abutilon theophrasti [2]: 2 (Herbicidal ratio of 20% or more and less than 40%) | N: herbicidal effect on Amaranthus retroflexus [3]: 2 (Herbicidal ratio of 20% or more and less than 40%) | P: herbicidal effect on Stellaria media [4]: 5 (Herbicidal ratio of 90% or more (almost completely withered)) | K: herbicidal effect on Lolium multiflorum Lam. [5]: 1 (Herbicidal ratio of 5% or more and less than 20%) | R: herbicidal effect on Veronica persica [6]: 4 (Herbicidal ratio of 70% or more and less than 90%) | O: herbicidal effect on Chenopodium album [7]: 5 (Herbicidal ratio of 90% or more (almost completely withered)) | H: herbicidal effect on Echinochloa crus-galli var. crus-galli [8]: 2 (Herbicidal ratio of 20% or more and less than 40%) | G: herbicidal effect on Setaria viridis [9]: 0 (Herbicidal ratio of 5% or less (almost no effect)) | J: herbicidal effect on Alopecurus myosuroides [10]: 0 (Herbicidal ratio of 5% or less (almost no effect)) | Q: herbicidal effect on Galium spurium [11]: 2 (Herbicidal ratio of 20% or more and less than 40%) | L: herbicidal effect on Apera spica-venti. [12]: 1 (Herbicidal ratio of 5% or more and less than 20%) | F: herbicidal effect on Digitaria ciliaris [13]: 0 (Herbicidal ratio of 5% or less (almost no effect)) | g: effect on crop, Brassica campestris L. [14]: 0 (Herbicidal ratio of 5% or less (almost no effect)) | e: effect on crop, Triticum aestivum [15]: 0 (Herbicidal ratio of 5% or less (almost no effect)) | c: effect on crop, Zea mays [16]: 0 (Herbicidal ratio of 5% or less (almost no effect)) | d: effect on crop, Glycine max [17]: 1 (Herbicidal ratio of 5% or more and less than 20%) | b: effect on crop, directly sowed Oryza sativa [18]: 0 (Herbicidal ratio of 5% or less (almost no effect)) | f: effect on crop, Beta vulgaris ssp. vulgaris [19]: 5 (Herbicidal ratio of 90% or more (almost completely withered)) | a: transplanted Oryza sativa (effect on crop grade) [20]: 0 (Herbicidal ratio of 5% or less (almost no effect))

Cn1nnnc1NC(=O)c1ccc(C(F)(F)F)n2c(C3CC3)nnc12 [2-005]
I: herbicidal effect on Avena fatua [1]: 3 (Herbicidal ratio of 40% or more and less than 70%) | M: herbicidal effect on Abutilon theophrasti [2]: 5 (Herbicidal ratio of 90% or more (almost completely withered)) | N: herbicidal effect on Amaranthus retroflexus [3]: 5 (Herbicidal ratio of 90% or more (almost completely withered)) | P: herbicidal effect on Stellaria media [4]: 5 (Herbicidal ratio of 90% or more (almost completely withered)) | K: herbicidal effect on Lolium multiflorum Lam. [5]: 2 (Herbicidal ratio of 20% or more and less than 40%) | R: herbicidal effect on Veronica persica [6]: 5 (Herbicidal ratio of 90% or more (almost completely withered)) | O: herbicidal effect on Chenopodium album [7]: 5 (Herbicidal ratio of 90% or more (almost completely withered)) | H: herbicidal effect on Echinochloa crus-galli var. crus-galli [8]: 5 (Herbicidal ratio of 90% or more (almost completely withered)) | G: herbicidal effect on Setaria viridis [9]: 4 (Herbicidal ratio of 70% or more and less than 90%) | J: herbicidal effect on Alopecurus myosuroides [10]: 3 (Herbicidal ratio of 40% or more and less than 70%) | Q: herbicidal effect on Galium spurium [11]: 4 (Herbicidal ratio of 70% or more and less than 90%) | L: herbicidal effect on Apera spica-venti. [12]: 4 (Herbicidal ratio of 70% or more and less than 90%) | F: herbicidal effect on Digitaria ciliaris [13]: 5 (Herbicidal ratio of 90% or more (almost completely withered)) | g: effect on crop, Brassica campestris L. [14]: 4 (Herbicidal ratio of 70% or more and less than 90%) | e: effect on crop, Triticum aestivum [15]: 3 (Herbicidal ratio of 40% or more and less than 70%) | c: effect on crop, Zea mays [16]: 1 (Herbicidal ratio of 5% or more and less than 20%) | d: effect on crop, Glycine max [17]: 3 (Herbicidal ratio of 40% or more and less than 70%) | b: effect on crop, directly sowed Oryza sativa [18]: 0 (Herbicidal ratio of 5% or less (almost no effect)) | f: effect on crop, Beta vulgaris ssp. vulgaris [19]: 5 (Herbicidal ratio of 90% or more (almost completely withered)) | a: transplanted Oryza sativa (effect on crop grade) [20]: 0 (Herbicidal ratio of 5% or less (almost no effect))

CCC(CC)c1nnc2c(C(=O)Nc3nnnn3C)ccc(C(F)(F)F)n12 [2-006]
I: herbicidal effect on Avena fatua [1]: 3 (Herbicidal ratio of 40% or more and less than 70%) | M: herbicidal effect on Abutilon theophrasti [2]: 5 (Herbicidal ratio of 90% or more (almost completely withered)) | N: herbicidal effect on Amaranthus retroflexus [3]: 5 (Herbicidal ratio of 90% or more (almost completely withered)) | P: herbicidal effect on Stellaria media [4]: 5 (Herbicidal ratio of 90% or more (almost completely withered)) | K: herbicidal effect on Lolium multiflorum Lam. [5]: 1 (Herbicidal ratio of 5% or more and less than 20%) | R: herbicidal effect on Veronica persica [6]: 5 (Herbicidal ratio of 90% or more (almost completely withered)) | O: herbicidal effect on Chenopodium album [7]: 5 (Herbicidal ratio of 90% or more (almost completely withered)) | H: herbicidal effect on Echinochloa crus-galli var. crus-galli [8]: 5 (Herbicidal ratio of 90% or more (almost completely withered)) | G: herbicidal effect on Setaria viridis [9]: 5 (Herbicidal ratio of 90% or more (almost completely withered)) | J: herbicidal effect on Alopecurus myosuroides [10]: 2 (Herbicidal ratio of 20% or more and less than 40%) | Q: herbicidal effect on Galium spurium [11]: 3 (Herbicidal ratio of 40% or more and less than 70%) | L: herbicidal effect on Apera spica-venti. [12]: 4 (Herbicidal ratio of 70% or more and less than 90%) | F: herbicidal effect on Digitaria ciliaris [13]: 5 (Herbicidal ratio of 90% or more (almost completely withered)) | g: effect on crop, Brassica campestris L. [14]: 4 (Herbicidal ratio of 70% or more and less than 90%) | e: effect on crop, Triticum aestivum [15]: 3 (Herbicidal ratio of 40% or more and less than 70%) | c: effect on crop, Zea mays [16]: 1 (Herbicidal ratio of 5% or more and less than 20%) | d: effect on crop, Glycine max [17]: 4 (Herbicidal ratio of 70% or more and less than 90%) | b: effect on crop, directly sowed Oryza sativa [18]: 5 (Herbicidal ratio of 90% or more (almost completely withered)) | f: effect on crop, Beta vulgaris ssp. vulgaris [19]: 5 (Herbicidal ratio of 90% or more (almost completely withered)) | a: transplanted Oryza sativa (effect on crop grade) [20]: 4 (Herbicidal ratio of 70% or more and less than 90%)

Cn1nnnc1NC(=O)c1ccc(C(F)(F)F)n2c(-c3ccccc3)nnc12 [2-007]
I: herbicidal effect on Avena fatua [1]: 3 (Herbicidal ratio of 40% or more and less than 70%) | M: herbicidal effect on Abutilon theophrasti [2]: 5 (Herbicidal ratio of 90% or more (almost completely withered)) | N: herbicidal effect on Amaranthus retroflexus [3]: 5 (Herbicidal ratio of 90% or more (almost completely withered)) | P: herbicidal effect on Stellaria media [4]: 5 (Herbicidal ratio of 90% or more (almost completely withered)) | K: herbicidal effect on Lolium multiflorum Lam. [5]: 2 (Herbicidal ratio of 20% or more and less than 40%) | R: herbicidal effect on Veronica persica [6]: 5 (Herbicidal ratio of 90% or more (almost completely withered)) | O: herbicidal effect on Chenopodium album [7]: 5 (Herbicidal ratio of 90% or more (almost completely withered)) | H: herbicidal effect on Echinochloa crus-galli var. crus-galli [8]: 5 (Herbicidal ratio of 90% or more (almost completely withered)) | G: herbicidal effect on Setaria viridis [9]: 4 (Herbicidal ratio of 70% or more and less than 90%) | J: herbicidal effect on Alopecurus myosuroides [10]: 2 (Herbicidal ratio of 20% or more and less than 40%) | Q: herbicidal effect on Galium spurium [11]: 1 (Herbicidal ratio of 5% or more and less than 20%) | L: herbicidal effect on Apera spica-venti. [12]: 4 (Herbicidal ratio of 70% or more and less than 90%) | F: herbicidal effect on Digitaria ciliaris [13]: 5 (Herbicidal ratio of 90% or more (almost completely withered)) | g: effect on crop, Brassica campestris L. [14]: 4 (Herbicidal ratio of 70% or more and less than 90%) | e: effect on crop, Triticum aestivum [15]: 2 (Herbicidal ratio of 20% or more and less than 40%) | c: effect on crop, Zea mays [16]: 0 (Herbicidal ratio of 5% or less (almost no effect)) | d: effect on crop, Glycine max [17]: 3 (Herbicidal ratio of 40% or more and less than 70%) | b: effect on crop, directly sowed Oryza sativa [18]: 2 (Herbicidal ratio of 20% or more and less than 40%) | f: effect on crop, Beta vulgaris ssp. vulgaris [19]: 5 (Herbicidal ratio of 90% or more (almost completely withered)) | a: transplanted Oryza sativa (effect on crop grade) [20]: 3 (Herbicidal ratio of 40% or more and less than 70%)
